Laboratory results: patent US9695132B2, “Heteroaryl compounds and uses thereof” (Celgene CAR LLC, priority 2013, dated 2017)
Read-outs that look alike come from different tables or passages of the source.

Molecular target: FGFR4-WT (Homo sapiens (Human), UniProt P22455)
Experiment: Omnia assay for potency assessment against FGFR4 enzyme
Assay type: biochemical
Experimental: A 10× stock solution of FGFR4-WT (PR4380C), (from Invitrogen, Carlsbad, Calif.) corresponding to method a in Table 7, was prepared as described below. Alternatively, a 10× stock solution of FGFR4-WT (F01-11G), (SignalChem, Richmond, BC) corresponding to method b in Table 7, was prepared as described below. A solution of 1.4×ATP (AS001A) and 5× Tyr-Sox conjugated peptide substrate (KNZ3101) were prepared in 1× kinase reaction buffer consisting of 20 mM Tris, pH 7.5, 5 mM MgCl2, 1 mM EGTA, 5 mM β-glycerophosphate, 5% glycerol (10× stock, KB002A) and 0.2 mM DTT (DS001A). […] The serially diluted compounds were prepared on a Tecan EVO100. A second addition of 10 μl of Tyr-Sox FGFR4 substrate was added to each well and the kinase reactions were started with the addition of 35 μL of 1.4×ATP. The reactions were monitored every 71 seconds for 240 minutes at λex360/λem485 in a Synergy plate reader from BioTek (Winooski, Vt.).

[1] = method a: [FGFR4-WT]=10 nM (Invitrogen), [ATP]=300 uM, [Y10-Sox]=10 uM
[2] = method b: [FGFR4-WT]=2.5 nM (SignalChem), [ATP]=250 uM, [Y10-Sox]=10 uM

Chain of FGFR4-WT (P22455 22-802): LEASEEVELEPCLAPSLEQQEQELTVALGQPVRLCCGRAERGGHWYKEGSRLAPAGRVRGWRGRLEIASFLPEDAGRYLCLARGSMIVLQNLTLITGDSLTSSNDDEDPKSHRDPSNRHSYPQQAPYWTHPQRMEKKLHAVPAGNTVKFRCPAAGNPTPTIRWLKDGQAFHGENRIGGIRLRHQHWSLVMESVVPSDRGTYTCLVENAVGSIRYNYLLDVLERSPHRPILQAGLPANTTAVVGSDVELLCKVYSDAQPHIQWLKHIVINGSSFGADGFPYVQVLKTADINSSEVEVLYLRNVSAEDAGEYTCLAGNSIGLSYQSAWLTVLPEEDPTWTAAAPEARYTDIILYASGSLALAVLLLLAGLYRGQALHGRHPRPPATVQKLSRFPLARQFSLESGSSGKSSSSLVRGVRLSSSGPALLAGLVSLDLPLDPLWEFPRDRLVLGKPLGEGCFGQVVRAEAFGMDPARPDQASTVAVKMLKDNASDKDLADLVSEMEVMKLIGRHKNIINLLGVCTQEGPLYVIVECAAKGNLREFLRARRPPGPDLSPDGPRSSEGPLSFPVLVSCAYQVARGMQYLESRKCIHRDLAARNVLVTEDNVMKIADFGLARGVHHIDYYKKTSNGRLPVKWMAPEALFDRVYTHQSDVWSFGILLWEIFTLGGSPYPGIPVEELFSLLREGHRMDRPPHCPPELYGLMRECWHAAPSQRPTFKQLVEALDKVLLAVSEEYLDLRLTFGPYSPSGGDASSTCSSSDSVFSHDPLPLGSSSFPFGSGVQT

Row | Structure (SMILES) | IC50 [1] | also measured
1 | C=CS(=O)(=O)Nc1ccccc1Nc1ncc2c(n1)N(C)C(=O)N(c1cc(OC)cc(OC)c1)C2 [Compound I-67] | < 100 nM | 
2 | C=CC(=O)Nc1cc(-c2nccs2)ccc1Nc1ncc2c(n1)N(C)C(=O)N(c1cc(OC)cc(OC)c1)C2 [Compound I-84] | 501 to 999 nM | 
3 | C=CC(=O)Nc1ccccc1Nc1ncc2c(n1)N(C)C(=O)N(C1CC1)C2 [Compound I-51] | > 1000 nM | 
4 | C=CC(=O)Nc1cc(C(F)(F)F)ccc1Nc1ncc2c(n1)N(Cc1ccccc1)C(=O)N(c1c(Cl)c(OC)cc(OC)c1Cl)C2 [Compound I-10] |  | IC50 [2]: > 1000 nM
5 | C=CC(=O)N[C@H]1CCCC[C@H]1Nc1ncc2c(n1)N(Cc1ccccc1)C(=O)N(c1c(Cl)c(OC)cc(OC)c1Cl)C2 [Compound I-82] |  | IC50: < 100 nM
6 | C=CC(=O)N(C)c1ccccc1Nc1ncc2c(n1)N(C)C(=O)N(c1c(Cl)c(OC)cc(OC)c1Cl)C2 [Compound I-29] | 101 to 500 nM | 
7 | C=CC(=O)Nc1ccccc1Nc1ncc2c(n1)N(Cc1cccc(C#N)c1)C(=O)N(c1cc(OC)cc(OC)c1)C2 [Compound I-90] | < 100 nM | 
8 | C=CC(=O)NC1CN(c2ccccn2)CC1Nc1ncc2c(n1)N(C)C(=O)N(c1c(Cl)c(OC)cc(OC)c1Cl)C2 (stereo not drawn) [Compound I-202] | < 100 nM | 
9 | C=CCCN1C(=O)N(c2cc(OC)cc(OC)c2)Cc2cnc(Nc3ccccc3NC(=O)C=C)nc21 [Compound I-57] | < 100 nM | 
10 | C=CC(=O)Nc1cc(-c2cnn(C)c2)ccc1Nc1ncc2c(n1)N(C)C(=O)N(c1cc(OC)cc(OC)c1)C2 [Compound I-77] | < 100 nM | 
11 | C=CC(=O)Nc1ccccc1Nc1ncc2c(n1)N(Cc1nccs1)C(=O)N(c1c(Cl)c(OC)cc(OC)c1Cl)C2 [Compound I-91] | < 100 nM | 
12 | C=CC(=O)Nc1ccccc1Nc1ncc2c(n1)N(CC(F)F)C(=O)N(c1c(Cl)c(OC)cc(OC)c1Cl)C2 [Compound I-103] | < 100 nM | 
13 | C=CC(=O)Nc1ccccc1Nc1ncc2c(n1)N(C1CC1)C(=O)N(c1c(Cl)c(OC)cc(OC)c1Cl)C2 [Compound I-23] |  | IC50 [2]: < 100 nM
14 | C=CC(=O)Nc1ccccc1Nc1ncc2c(n1)N(CC1CCNCC1)C(=O)N(c1cc(OC)cc(OC)c1)C2 [Compound I-40] | < 100 nM | 
15 | C=CC(=O)N[C@H]1CCCC[C@H]1Nc1ncc2c(n1)N(C)C(=O)N(c1ccc(OC)cc1)C2 [Compound I-222] | > 1000 nM | 
16 | C=CC(=O)N(C)c1ccccc1Nc1ncc2c(n1)N(Cc1ccccc1)C(=O)N(c1c(Cl)c(OC)cc(OC)c1Cl)C2 [Compound I-37] | 101 to 500 nM | 
17 | C=CC(=O)Nc1ccc(N2CCN(CC)CC2)cc1Nc1ncc2c(n1)N(C)C(=O)N(c1cc(OC)cc(OC)c1)C2 [Compound I-30] | < 100 nM | 
18 | C=CC(=O)N[C@@H]1CCCC[C@@H]1Nc1ncc2c(n1)N(Cc1ccccc1)C(=O)N(c1c(Cl)c(OC)cc(OC)c1Cl)C2 [Compound I-66] | > 1000 nM | 
19 | C=CC(=O)Nc1ccccc1Nc1ncc2c(n1)N(C)C(=O)N(c1cc(OC)cc(OC)c1F)C2 [Compound I-108] | < 100 nM | 
20 | C=CC(=O)N[C@H]1CCCC[C@H]1Nc1ncc2c(n1)N(Cc1ccn(C)n1)C(=O)N(c1c(Cl)c(OC)cc(OC)c1Cl)C2 [Compound I-147] | < 100 nM | 

Row | Structure (SMILES) | IC50 [1] | also measured
21 | C=CC(=O)Nc1ccccc1Nc1ncc2c(n1)N(C)C(=O)N(c1c(Cl)c(OC)cc(OC)c1Cl)C2 [Compound I-2] |  | IC50 [2]: < 100 nM
22 | C=CC(=O)NC1CNC(=O)CC1Nc1ncc2c(n1)N(C)C(=O)N(c1c(Cl)c(OC)cc(OC)c1Cl)C2 (stereo not drawn) [Compound I-196] | < 100 nM | 
23 | C=CC(=O)Nc1ccccc1Nc1ncc2c(n1)N(CCC(O)CO)C(=O)N(c1cc(OC)cc(OC)c1)C2 (stereo not drawn) [Compound I-58] | < 100 nM | 
24 | C=CC(=O)Nc1ccc(-c2cnn(C)c2)cc1Nc1ncc2c(n1)N(C)C(=O)N(c1c(Cl)c(OC)cc(OC)c1Cl)C2 [Compound I-74] | < 100 nM | 
25 | C=CC(=O)Nc1cc(C2CCN(CC)CC2)ccc1Nc1ncc2c(n1)N(C)C(=O)N(c1cc(OC)cc(OC)c1)C2 [Compound I-54] | < 100 nM | 
26 | C=CC(=O)Nc1cc(C(=O)NC2CCN(C)CC2)ccc1Nc1ncc2c(n1)N(C)C(=O)N(c1c(Cl)c(OC)cc(OC)c1Cl)C2 [Compound I-150] | < 100 nM | 
27 | C=CC(=O)Nc1ccc(-c2nccs2)cc1Nc1ncc2c(n1)N(C)C(=O)N(c1cc(OC)cc(OC)c1)C2 [Compound I-78] | < 100 nM | 
28 | C=CC(=O)Nc1ccccc1Nc1ncc2c(n1)N(C1CC1)C(=O)N(c1cc(OC)cc(OC)c1)C2 [Compound I-34] | < 100 nM | 
29 | C=CC(=O)NCc1ccccc1Nc1ncc2c(n1)N(C)C(=O)N(c1c(Cl)c(OC)cc(OC)c1Cl)C2 [Compound I-181] |  | IC50 [2]: < 100 nM
30 | C=CC(=O)Nc1ccccc1Nc1ncc2c(n1)N(CC1CC1)C(=O)N(c1c(Cl)c(OC)cc(OC)c1Cl)C2 [Compound I-130] | < 100 nM | 
31 | C=CC(=O)Nc1ccccc1Nc1ncc2c(n1)N(Cc1ccc(F)c(N)c1)C(=O)N(c1c(Cl)c(OC)cc(OC)c1Cl)C2 [Compound I-144] | < 100 nM | 
32 | C=CC(=O)Nc1cc(Cl)c(Cl)cc1Nc1ncc2c(n1)N(Cc1ccccc1)C(=O)N(c1c(Cl)c(OC)cc(OC)c1Cl)C2 [Compound I-11] |  | IC50 [2]: 501 to 999 nM
33 | C=CC(=O)N[C@H]1CCCC[C@H]1Nc1ncc2c(n1)N(Cc1cn[nH]c1)C(=O)N(c1c(Cl)c(OC)cc(OC)c1Cl)C2 [Compound I-152] | < 100 nM | 
34 | C=CC(=O)Nc1ccccc1Nc1ncc2c(n1)N(C)C(=O)N(c1cc(OC)cc(OC)c1Cl)C2 [Compound I-75] | < 100 nM | 
35 | C=CC(=O)Nc1cc(C2=CCN(CC)CC2)ccc1Nc1ncc2c(n1)N(C)C(=O)N(c1cc(OC)cc(OC)c1)C2 [Compound I-56] | < 100 nM | 
36 | COc1cc(OC)cc(N2Cc3cnc(Nc4ccccc4)nc3N(C)C2=O)c1 [Compound I-237] | 101 to 500 nM | 
37 | C=CC(=O)Nc1cc(N2CCN(CC)CC2)ccc1Nc1ncc2c(n1)N(C)C(=O)N(c1cc(OC)cc(OC)c1)C2 [Compound I-15] |  | IC50 [2]: < 100 nM
38 | C=CC(=O)Nc1ccccc1Nc1ncc2c(n1)N(C)C(=O)N(C1CCCCC1)C2 [Compound I-52] | 501 to 999 nM | 
39 | C=CC(=O)Nc1ccccc1Nc1ncc2c(n1)N(Cc1ccc(Cl)c(OC)c1)C(=O)N(c1c(Cl)c(OC)cc(OC)c1Cl)C2 [Compound I-24] |  | IC50 [2]: < 100 nM
40 | C=CC(=O)Nc1cc(-c2cnn(C)c2)ccc1Nc1ncc2c(n1)N(C)C(=O)N(c1c(Cl)c(OC)cc(OC)c1Cl)C2 [Compound I-141] | < 100 nM | 

Row | Structure (SMILES) | IC50 [1] | also measured
41 | C=CC(=O)Nc1cc(N2CCOCC2)ccc1Nc1ncc2c(n1)N(C)C(=O)N(c1cc(OC)cc(OC)c1)C2 [Compound I-17] | < 100 nM | 
42 | C=CC(=O)Nc1cc(-c2nnn(C)n2)ccc1Nc1ncc2c(n1)N(C)C(=O)N(c1c(Cl)c(OC)cc(OC)c1Cl)C2 [Compound I-145] | < 100 nM | 
43 | C=CC(=O)Nc1ccccc1Nc1ncc2c(n1)N(C)C(=O)N(c1ccccc1)C2 [Compound I-38] | 501 to 999 nM | 
44 | C=C(C)C(=O)Nc1ccccc1Nc1ncc2c(n1)N(C)C(=O)N(c1c(Cl)c(OC)cc(OC)c1Cl)C2 [Compound I-142] | < 100 nM | 
45 | C=CCN1C(=O)N(c2cc(OC)cc(OC)c2)Cc2cnc(Nc3ccccc3NC(=O)C=C)nc21 [Compound I-32] | < 100 nM | 
46 | C=CC(=O)Nc1ccccc1Nc1ncc2c(n1)N(Cc1csc(C)n1)C(=O)N(c1c(Cl)c(OC)cc(OC)c1Cl)C2 [Compound I-134] | < 100 nM | 
47 | C=CC(=O)Nc1ccccc1Oc1ncc2c(n1)N(C)C(=O)N(c1c(Cl)c(OC)cc(OC)c1Cl)C2 [Compound I-65] | < 100 nM | 
48 | C=CC(=O)Nc1cc(N2CCN(C(=O)CCC(=O)O)CC2)ccc1Nc1ncc2c(n1)N(C)C(=O)N(c1c(Cl)c(OC)cc(OC)c1Cl)C2 [Compound I-123] | < 100 nM | 
49 | C=CC(=O)Nc1cc(CN2CCN(CC)CC2)ccc1Nc1ncc2c(n1)N(C)C(=O)N(c1cc(OC)cc(OC)c1)C2 [Compound I-122] | 101 to 500 nM | 
50 | C=CC(=O)NC1CCCCC1Nc1ncc2c(n1)NC(=O)N(c1c(Cl)c(OC)cc(OC)c1Cl)C2 (racemic) [Compound I-73] | 101 to 500 nM | 
51 | C=CC(=O)Nc1ccccc1Nc1ncc2c(n1)N(CC1CCN(C(=O)OC(C)(C)C)CC1)C(=O)N(c1cc(OC)cc(OC)c1)C2 [Compound I-60] | < 100 nM | 
52 | C=CC(=O)Nc1ccccc1Nc1ncc2c(n1)N(CC1CC1)C(=O)N(c1cc(OC)cc(OC)c1F)C2 [Compound I-109] | < 100 nM | 
53 | CCC(=O)Nc1ccccc1Nc1ncc2c(n1)N(C)C(=O)N(c1c(Cl)c(OC)cc(OC)c1Cl)C2 [Compound I-235] |  | IC50 [2]: 101 to 500 nM
54 | C=CC(=O)NC1CCCCC1Nc1ncc2c(n1)N(CC1CC1)C(=O)N(c1cc(OC)cc(OC)c1Cl)C2 (stereo not drawn) [Compound I-101] | 101 to 500 nM | 
55 | C=CC(=O)Nc1ccc(-c2cnn(C)c2)cc1Nc1ncc2c(n1)N(C)C(=O)N(c1cc(OC)cc(OC)c1)C2 [Compound I-27] | < 100 nM | 
56 | C=CC(=O)Nc1cc(OCCOC)ccc1Nc1ncc2c(n1)N(Cc1ccccc1)C(=O)N(c1cc(OC)cc(OC)c1)C2 [Compound I-14] |  | IC50 [2]: < 100 nM
57 | C=CC(=O)Nc1ccccc1Nc1ncc2c(n1)N(CC(=O)OC(C)(C)C)C(=O)N(c1cc(OC)cc(OC)c1)C2 [Compound I-96] | > 1000 nM | 
58 | C=CC(=O)Nc1ccc(C)cc1Nc1ncc2c(n1)N(C)C(=O)N(c1cc(OC)cc(OC)c1)C2 [Compound I-49] | < 100 nM | 
59 | C=CC(=O)Nc1ccccc1Nc1ncc2c(n1)N(Cc1ccn(C)n1)C(=O)N(c1c(Cl)c(OC)cc(OC)c1Cl)C2 [Compound I-136] | < 100 nM | 
60 | C=CC(=O)Nc1ccccc1Nc1ncc2c(n1)N(Cc1ccnc(N)c1)C(=O)N(c1c(Cl)c(OC)cc(OC)c1Cl)C2 [Compound I-135] | < 100 nM | 
